Key:
[1] = system: anti-OVA-IgE, IgG1, IgG2a in serum; assay: Induction of anti-OVA antibodies by third OVA sensitization in already sensitive mice (Experiment 7); type: in vivo; details: for Anti-OVA-IgE in serum / Anti-OVA-IgG1 in serum / Anti-OVA-IgG2a in serum: two weeks after third sensitization of OVA-sensitive mice; for Anti-OVA-IgE in serum, relative to control / Anti-OVA-IgG1 in serum, relative to control / Anti-OVA-IgG2a in serum, relative to control: after third sensitization
Protocol: In order to investigate the effect of lactosucorse on systemic immunity, antibody level in serum was measured. Similarly as in Experiment 1, female BALB/c mice (six weeks old) were preliminary reared for one week on “AIN-93G”, the same standard purified diet as used in Experiment 1. Successively, “NYU-KA OLIGO 700”, a saccharide composition comprising 71.4% (w/w), on a dry solid basis, of lactosucrose commercialized by Hayashibara Shoji Inc., Okayama, Japan, was incorporated into the above purified diet, in which corn starch equal to the amount of the saccharide composition comprising lactosucrose had been removed, to give a lactosucrose content of 2% (w/w) or 5% (w/w), and five to seven mice/group were allowed to ingest the resulting test diet freely. Mice, allowed to ingest “AIN-93G”, as the standard purified diet, were used as control. At 10 days after from starting the administration of the test diet, mice were sensitized to antigen by administrating 20 μg of ovalbumin (OVA) (grade V, commercialized by Sigma Corporation) as antigen and 4.5 mg of “IMJECT®”, alum commercialized by Pierce ThermoScientific as adjuvant, into the peritoneal cavity. Successively, 15 days after from the first sensitization, the second sensitization was carried out by the same procedure. The blood was collected from caudal vein of mice at one, two, and three weeks after from the second sensitization, the serum was collected by centrifugation, and the amount of IgE to OVA was measured by EIA. In the cases of IgG1 and IgG2a, the amount of antibody was measured using serum collected at two weeks after from the second sensitization. The IgE and IgG2a titers were measured by capture EIA and IgG1 titer was measured by indirect EIA. Each titer was calculated by calibration curve prepared by using anti-OVA mouse serum (IgE: 1.760 U/ml, IgG1: 128,000 U/ml, IgG2a: 7,040 u/ml) as a standard serum. The amounts of IgE at one, two, or three weeks after from the second sensitization are in Table 5, and the amounts of IgG1 and IgG2a of two weeks after from the second sensitization are in Table 6. The percentages in parentheses in tables mean a relative value to the antibody concentration in serum of the control mice.
Considering the application of lactosucrose to allergic patients, mice which had been made sensitive to OVA by sensitizing with OVA were prepared and the suppressing effect of lactosucrose on the production of anti-OVA-IgE when exposed to OVA was investigated by allowing the above mice to ingest lactosucrose. Female BALB/c mice (six weeks old, five mice/group) were preliminary reared for one week on “AIN-93G”, the same standard purified diet as used in Experiment 1. Successively, similarly as in Experiment 4, 20 μg of OVA, and 4.5 mg of alum were administrated to the peritoneal cavity of the mice and further reared for two weeks on the above standard diet. Then, the second sensitization of OVA and alum was carried out by the same procedure as used in the first sensitization. After two weeks, the mice were reared for further six weeks on the test diet comprising 2% (w/w) or 5% (w/w) lactosucrose, used in Experiment 1. After checking the mice being sensitive to OVA by measuring the amount of IgE, OVA and alum were administrated to them by the same procedure as used in the first and second sensitizations. After rearing two weeks on the test diet, blood was collected from respective mice and the concentrations of anti-OVA-IgE, anti-OVA-IgG1, and anti-OVA-IgG2a were determined by the same method as used in Experiment 4.

spleen cells = assay: Cytokine production by spleen cells of OVA-sensitized mice restimulated with OVA (Experiment 6); type: in vivo
Protocol: In order to investigate the effect of lactosucrose on systemic immunity, the ability for producing cytokines of spleen cells was measured. At two weeks after the second sensitization in Experiment 4, spleens were removed from the mice of the control group and the group administrated with lactosucrose and the spleen cells were adjusted to give a cell concentration of 1×10^7/ml, and then placed in a 24-well plate. At two days or four days after adding 50 μg/ml of OVA, the amounts of IFN-γ, interleukin-2 (IL-2), IL-4, interleukin-5 (IL-5), and IL-10 in the culture supernatant were determined by conventional EIAs using antibodies (commercialized by BD-Pharmingen) corresponding to those. The percentages in parentheses in Table 9 mean relative values to the concentrations of respective cytokines produced by spleen cells from the control mice.

[2] = Lactosucrose 5% (w/w), listed as lactosucrose
[3] = Lactosucrose 5% (w/w) diet, 2 days after adding 50 μg/ml OVA
[4] = Lactosucrose 5% (w/w) diet, 4 days after adding 50 μg/ml OVA
[5] = Lactosucrose 5% (w/w), 2 days after
[6] = Lactosucrose 5% (w/w), 4 days after

OC[C@H]1O[C@@H](O[C@H]2[C@H](O)[C@@H](O)[C@@H](O[C@]3(CO)O[C@H](CO)[C@@H](O)[C@@H]3O)O[C@@H]2CO)[C@H](O)[C@@H](O)[C@H]1O [Lactosucrose, β-D-galactosyl-(1,4)-α-D-glucosyl-(1,2)-β-D-fructoside]
Anti-OVA-IgE in serum ([1]; Lactosucrose 2% (w/w) diet): 1,450 ± 561 U/ml | Anti-OVA-IgG1 in serum ([1]; Lactosucrose 2% (w/w) diet): 678 ± 176 ×10^4 U/ml | Anti-OVA-IgG2a in serum ([1]; Lactosucrose 2% (w/w) diet): 12.4 ± 5.02 ×10^4 U/ml | Anti-OVA-IgE in serum, relative to control ([1]; Lactosucrose 2% (w/w)): (72%) | Anti-OVA-IgG1 in serum, relative to control ([1]; Lactosucrose 2% (w/w)): (111%) | Anti-OVA-IgG2a in serum, relative to control ([1]; Lactosucrose 2% (w/w)): (120%) | Anti-OVA-IgE in serum, relative to control ([1]; Lactosucrose 2% (w/w), listed as lactosucrose): 72% | Anti-OVA-IgE in serum ([1]; Lactosucrose 5% (w/w) diet): 1,250 ± 264 U/ml | Anti-OVA-IgG1 in serum ([1]; Lactosucrose 5% (w/w) diet): 365 ± 35.1 ×10^4 U/ml | Anti-OVA-IgG2a in serum ([1]; Lactosucrose 5% (w/w) diet): 5.77 ± 1.93 ×10^4 U/ml | Anti-OVA-IgE in serum, relative to control ([1]; Lactosucrose 5% (w/w)): (62%) | Anti-OVA-IgG1 in serum, relative to control ([1]; Lactosucrose 5% (w/w)): (60%) | Anti-OVA-IgG2a in serum, relative to control ([1]; Lactosucrose 5% (w/w)): (56%) | Anti-OVA-IgE in serum, relative to control [1, 2]: 62% | Anti-OVA-IgG1 in serum, relative to control [1, 2]: about 50% | Anti-OVA-IgG2a in serum, relative to control [1, 2]: about 50% | IFN-γ produced by spleen cells (spleen cells; [3]): 1.1 ± 0.19 IU/ml | IL-2 produced by spleen cells (spleen cells; [3]): 290 ± 160 pg/mL | IL-4 produced by spleen cells (spleen cells; [3]): 32 ± 10 pg/mL | IL-10 produced by spleen cells (spleen cells; [3]): 0.83 ± 0.27 ng/mL | IFN-γ produced by spleen cells (spleen cells; [4]): 2.9 ± 0.91 IU/ml | IL-4 produced by spleen cells (spleen cells; [4]): 62 ± 31 pg/mL | IL-5 produced by spleen cells (spleen cells; [4]): 1.3 ± 0.32 ng/mL | IL-10 produced by spleen cells (spleen cells; [4]): 2.7 ± 0.32 ng/mL | IFN-γ produced by spleen cells, relative value to control (spleen cells; [5]): (113%) | IL-2 produced by spleen cells, relative value to control (spleen cells; [5]): (78%) | IL-4 produced by spleen cells, relative value to control (spleen cells; [5]): (107%) | IL-10 produced by spleen cells, relative value to control (spleen cells; [5]): (126%) | IFN-γ produced by spleen cells, relative value to control (spleen cells; [6]): (88%) | IL-4 produced by spleen cells, relative value to control (spleen cells; [6]): (63%) | IL-5 produced by spleen cells, relative value to control (spleen cells; [6]): (81%) | IL-10 produced by spleen cells, relative value to control (spleen cells; [6]): (123%)

Source: patent US20090270342A1, “IMMUNOREGULATORY AGENT” (priority 2006, published 2009)
